Laboratory results published in patent US5932417A, “Method of screening compounds for controlling capacitative calcium ion entry into mammalian cells” (priority 1996, dated 1999).
Entries after “also recorded” stand apart in the source; their conditions may differ.

Experiments:
[1] = system: M5 muscarinic receptor; test: Carbachol-induced capacitative Ca2+ influx in Ltk- cell lines expressing the M5 receptor (Fura2); format: cell-based; conditions: control Ltk- cell lines with M5 receptor only; average±SD, 20 cells each of 5 clones
Description: Mouse fibroblast Ltk^- cells (3×10^6 cells/100 mm dish) were transfected by the calcium phosphate/glycerol shock method with 5 μg each of the plasmids with the antisense cDNAs and 0.5 μg of the pcDNA3 carrying the M5 receptor. The control cells received only the M5 muscarinic receptor cDNA in pcDNA3. One day after transfection, the cells were trypsinized and diluted with Minimum Essential Medium--α medium containing 10% heat-inactivated fetal bovine serum, 50 units/ml penicillin, 50 μg/ml streptomycin, and 400 μg/ml G418 (GIBCO). Serial 1:4 dilutions of the cells were transferred into 96-well plates and G418 resistant clones were allowed to develop for two weeks in the G41 8-containing medium. Single colonies were then expanded and the cells used for Fura2 fluorescence measurement of muscarinic receptor induced [Ca^2+ ]i transients. […]
Intracellular Ca^2+ transients were measured in individual cells by fluorescence videomicroscopy using the Attofluor Digital Imaging and Photometry attachment of a Carl Zeiss Axiovert inverted microscope. […] [Ca^2+ ]i in individual cells was monitored at room temperature exciting Fura2 alternatingly at 334 and 380 nm and recording emitted fluorescence at 520 nm. […]

[2] = system: endogenous TG-stimulated Ca2+ entry of COS cells; test: Thapsigargin (store depletion)-stimulated Ca2+ entry in control COS cells; format: cell-based; conditions: 250 μM La3+, 500 nM TG, 1.8 mM Ca2+ added
Description: (§1) Intracellular Ca^2+ transients were measured in individual cells by fluorescence videomicroscopy using the Attofluor Digital Imaging and Photometry attachment of a Carl Zeiss Axiovert inverted microscope. Cells (COS-M6 or L) were grown on circular coverslips, rinsed and incubated with 5 μM Fura2/AM (Molecular Probes) in Hepes buffered saline (HPSS: 120 mM NaCl, 5.3 mM KCl, 0.8 mM MgSO4, 1.8 mM CaCl2, 11.1 mM glucose, 20 mM Hepes-Na, pH 7.4) at 37° C. for 30 min and then washed with HPSS twice at room temperature. The coverslips with the cells were then clamped into a circular open-bottom chamber and mounted onto the stage of the microscope. [Ca^2+ ]i in individual cells was monitored at room temperature exciting Fura2 alternatingly at 334 and 380 nm and recording emitted fluorescence at 520 nm. All reagents were diluted to their final concentrations in HPSS and applied to the cells by surface perfusion. The duration of exposure to each reagent mixture is indicated by the horizontal lines above the graphs depicting the changes in [Ca^2+ ]i as a function of time. […] Data from 15 to 30 individual cells were thus collected per experiment and experiments were repeated until data from sufficient cells were collected to generate an ensemble average that was calculated after transfer into Microsoft Excel 5.0. […]

[3] = system: CCE endogenous to COS cells; format: cell-based
Description: Intracellular Ca^2+ transients were measured in individual cells by fluorescence videomicroscopy using the Attofluor Digital Imaging and Photometry attachment of a Carl Zeiss Axiovert inverted microscope. Cells (COS-M6 or L) were grown on circular coverslips, rinsed and incubated with 5 μM Fura2/AM (Molecular Probes) in Hepes buffered saline (HPSS: 120 mM NaCl, 5.3 mM KCl, 0.8 mM MgSO4, 1.8 mM CaCl2, 11.1 mM glucose, 20 mM Hepes-Na, pH 7.4) at 37° C. for 30 min and then washed with HPSS twice at room temperature. The coverslips with the cells were then clamped into a circular open-bottom chamber and mounted onto the stage of the microscope. [Ca^2+ ]i in individual cells was monitored at room temperature exciting Fura2 alternatingly at 334 and 380 nm and recording emitted fluorescence at 520 nm. […] Data from 15 to 30 individual cells were thus collected per experiment and experiments were repeated until data from sufficient cells were collected to generate an ensemble average that was calculated after transfer into Microsoft Excel 5.0. […]
For assessment of the rate at which [Ca^2+ ]i falls after an initial stimulation with agonist, t=0 is the time of agonist addition; for assessment of rate of influx of Ca^2+ into cells in which Ca^2+ stores had been depleted by agonist, t=0 is the time of Ca^2+ readdition. t1/2 /values were obtained by fitting the function A=A°exp(-t·ln2/t1/2)+B to the data points shown. […]

[4] = biological target: T1, Htrp3 (Homo sapiens, UniProt Q13507); format: cell-based; parameters: The full length cDNAs encoding the M5 muscarinic receptor (32), Htrp1 (29), Htrp3 and murine luteinizing hormone receptor; expressed in transfected cells; host or cells: COS-M6
T1 sequence (Q13507 1-848 isoform Q13507-3): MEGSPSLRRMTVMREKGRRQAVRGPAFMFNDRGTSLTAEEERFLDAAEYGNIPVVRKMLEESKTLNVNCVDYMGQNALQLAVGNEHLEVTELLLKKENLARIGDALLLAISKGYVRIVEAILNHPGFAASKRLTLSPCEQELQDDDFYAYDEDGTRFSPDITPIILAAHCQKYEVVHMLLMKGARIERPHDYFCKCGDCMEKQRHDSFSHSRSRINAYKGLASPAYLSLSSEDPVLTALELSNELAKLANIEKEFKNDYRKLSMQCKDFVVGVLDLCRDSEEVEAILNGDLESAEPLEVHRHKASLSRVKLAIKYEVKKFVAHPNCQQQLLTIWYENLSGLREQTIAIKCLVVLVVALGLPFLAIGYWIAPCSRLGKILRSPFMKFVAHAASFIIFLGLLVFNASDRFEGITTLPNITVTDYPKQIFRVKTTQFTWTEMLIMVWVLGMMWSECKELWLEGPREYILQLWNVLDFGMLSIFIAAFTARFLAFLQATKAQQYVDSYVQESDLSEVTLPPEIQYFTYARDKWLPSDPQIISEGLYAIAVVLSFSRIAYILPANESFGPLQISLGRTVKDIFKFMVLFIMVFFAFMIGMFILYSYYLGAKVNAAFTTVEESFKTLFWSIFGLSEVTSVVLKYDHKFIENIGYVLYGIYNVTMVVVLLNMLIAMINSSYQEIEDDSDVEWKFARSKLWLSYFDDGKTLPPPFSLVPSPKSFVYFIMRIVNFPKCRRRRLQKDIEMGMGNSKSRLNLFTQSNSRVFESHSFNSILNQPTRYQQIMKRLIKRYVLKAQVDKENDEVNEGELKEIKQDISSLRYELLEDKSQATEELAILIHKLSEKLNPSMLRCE
Description: Intracellular Ca^2+ transients were measured in individual cells by fluorescence videomicroscopy using the Attofluor Digital Imaging and Photometry attachment of a Carl Zeiss Axiovert inverted microscope. Cells (COS-M6 or L) were grown on circular coverslips, rinsed and incubated with 5 μM Fura2/AM (Molecular Probes) in Hepes buffered saline (HPSS: 120 mM NaCl, 5.3 mM KCl, 0.8 mM MgSO4, 1.8 mM CaCl2, 11.1 mM glucose, 20 mM Hepes-Na, pH 7.4) at 37° C. for 30 min and then washed with HPSS twice at room temperature. The coverslips with the cells were then clamped into a circular open-bottom chamber and mounted onto the stage of the microscope. [Ca^2+ ]i in individual cells was monitored at room temperature exciting Fura2 alternatingly at 334 and 380 nm and recording emitted fluorescence at 520 nm. All reagents were diluted to their final concentrations in HPSS and applied to the cells by surface perfusion. […] The system allows data acquisition from up to 99 user-defined variably-sized regions of interest per field of view. Data from 15 to 30 individual cells were thus collected per experiment and experiments were repeated until data from sufficient cells were collected to generate an ensemble average that was calculated after transfer into Microsoft Excel 5.0. […]
For assessment of the rate at which [Ca^2+ ]i falls after an initial stimulation with agonist, t=0 is the time of agonist addition; for assessment of rate of influx of Ca^2+ into cells in which Ca^2+ stores had been depleted by agonist, t=0 is the time of Ca^2+ readdition. t1/2 /values were obtained by fitting the function A=A°exp(-t·ln2/t1/2)+B to the data points shown.
Cells that had been transfected with expression vectors carrying the M5 receptor and, as appropriate, either the newly cloned Htrp3 cDNA or the previously cloned Htrp1 cDNA (29), were grown on coverslips, loaded with the florescent Ca^2+ indicator dye Fura2 and tested for a response to CCh 40-48 hours after transfection. […] Changes in [Ca^2+ ]i as a function of time were recorded from individual cells, averaged and fitted by a first order decay function plus an offset.

[5] = biological target: T1, Htrp3; test: Thapsigargin (store depletion)-stimulated Ca2+ entry in Htrp3-transfected COS cells; format: cell-based; parameters: The full length cDNAs encoding the M5 muscarinic receptor (32), Htrp1 (29), Htrp3 and murine luteinizing hormone receptor; expressed in transfected cells; host or cells: COS-M6; conditions: 250 μM La3+; 500 nM TG, 1.8 mM Ca2+ added
Description: as §1

[6] = biological target: T1, Htrp3; test: Carbachol-stimulated CCE upon Ca2+ readdition in HEK-293 cells stably expressing Htrp3 (HEKt3-9); format: cell-based; parameters: expressed in transfected cells; conditions: 25 μM SKF 96365, HEKt3-9 cells, Ca2+ readdition (FIG. 2)
Source text: (§2) Trp proteins can be expressed in cells by standard recombinant means such as described in Innamoratti et al. (57), Gudermann et al. (58), Zhu et al. (59) and Ca^2+ influx monitored in single cells as described in Zhu et al. (30) or in a population of cells as described in Liao et al. (32). By doing this in the absence and presence of test compounds of which the effect on trp-mediated CCE can then be determined. An example is shown below (FIGS. 1 and 2) where human embryonic kidney cells (HEK-293 cells) expressing Htrp3 in stable form (HEKt3-9) are stimulated with carbachol and CCE is measured upon readdition of Ca^2+ to the extracellular medium. […] Not only agents that block calcium entry due to trp expression but also agents that stimulate calcium entry due to trp can be monitored in this way.
(§3) In the above examples, cell were suspended in extracellular solution at a concentration of 20×10^6 cells/ml, loaded with Fura2AM (5 μM, 30 min), washed with solution nominally free of calcium, twice, and suspended at 2×10^6 cells/ml. Intracellular Ca^2+ concentrations were then monitored as described in Liao et al (32). Times and concentrations of additions are depicted by the bars in the Figures. Control cells were HEK 293 cells expressing an unrelated protein. For further details see references 32 and 30. […]

[7] = system: CCE endogenous to the HEK 293 cell; test: Carbachol-stimulated endogenous CCE in control HEK 293 cells; format: cell-based, human; conditions: 25 μM SKF 96365
Source text: as §2, §3

[8] = system: M5 muscarinic receptor; test: Carbachol-induced [Ca2+]i plateau in COS-M6 cells transfected with M5 receptor; format: cell-based; conditions: extracellular Ca2+ present
Description: COS-M6 cells were transfected by the DEAE-dextran/chloroquine shock method (14) as described (30) with changes. Sixteen hours prior to transfection, COS-M6 cells that had been kept subconfluent were plated at a density of 2×10^5 cells/well onto 25 mm glass coverslips placed at the bottom of the wells of 6-well plates. Cells in the individual wells were then transfected with 160 μl of transfection mixture (30) containing 0.1 μg pcDNA3 with the M5 receptor cDNA, a three fold molar excess of pcDNA3 vector carrying either the Htrp3, Htrp1 or mLHR cDNA to bring the final concentration of DNA to 4 μg/ml. Cell were used 40 to 48 hours after transfection.
Intracellular Ca^2+ transients were measured in individual cells by fluorescence videomicroscopy using the Attofluor Digital Imaging and Photometry attachment of a Carl Zeiss Axiovert inverted microscope. […] [Ca^2+ ]i in individual cells was monitored at room temperature exciting Fura2 alternatingly at 334 and 380 nm and recording emitted fluorescence at 520 nm. […] Data from 15 to 30 individual cells were thus collected per experiment and experiments were repeated until data from sufficient cells were collected to generate an ensemble average that was calculated after transfer into Microsoft Excel 5.0. […]

[9] = biological target: T1, Htrp3; test: Maitotoxin-stimulated Ca2+ influx into HEK 293 cells expressing Htrp3 versus control cells; format: cell-based; parameters: expressed in transfected cells; conditions: HEK 293 cells (FIG. 3)
Source text: as §2, §3

Compound: C[N+](C)(C)CCOC(N)=O [CCh, carbachol]
- Increase of [Ca2+]i through the capacitative influx path (at Ca2+ addition vs 30 sec later) [1]: 96 ± 5 nM

Compound: [La+3] [La^3+, lanthanum]
- Block of TG-stimulated Ca2+ entry [2]: > 80%
- Block of endogenous Ca2+ influx ([3]; 250 μM La3+, COS cells, agonist-stimulated): 80-90%
- Inhibition of CCE endogenous to COS cells ([3]; 1 mM La3+, CCh-stimulated, Ca2+ readdition): fully inhibited
- Block of the difference due to Htrp3 influx ([4]; 250 μM La3+, Htrp3-transfected COS cells): 30-40%
- Inhibition of Htrp3-stimulated Ca2+ influx ([4]; 1 mM La3+, COS-M6 cells, CCh-stimulated, Ca2+ readdition): fully inhibited
- Effect on TG-stimulated Ca2+ entry into Htrp3 transfected cells [5]: significant residual

Compound: [Ni+2] [Ni^2+, nickel]
- Block of endogenous CCh-stimulated CCE ([3]; 2 mM Ni2+, COS cells): > 90%
- Inhibition of CCh-stimulated influx due to Htrp3 ([4]; 2 mM Ni2+, Htrp3-transfected COS cells): 20%
- Block of Ca2+ influx in Htrp3 cells ([4]; 10 mM Ni2+, Htrp3-transfected COS cells): 85%

Compound: COc1ccc(CCCOC(Cn2ccnc2)c2ccc(OC)cc2)cc1 (centres unmarked) [SKF 96365]
- Block of CCE due to Htrp3 (extra-CCE) [6]: blocks selectively; also recorded: blocked
- Sensitivity of CCE endogenous to the HEK 293 cell (control) [7]: much less sensitive

Compound: CN1[C@@H]2CC[C@H]1C[C@@H](OC(=O)C(CO)c1ccccc1)C2 (some centres unmarked) [atropine]
- Effect on carbachol-maintained [Ca2+]i plateau [8]: blocked

Compound: maitotoxin
- Maitotoxin-stimulated Ca2+ influx, Htrp3-expressing cells versus control cells [9]: several fold larger
